Experimental data taken from patent US6110939A, “(Benzimidazolyl- and imidazopyridinyl) containing 1-(1,2-disubstituted piperidinyl) derivatives” (Janssen Pharmaceutica N.V., priority 1995, dated 2000).

System: substance P induced relaxation of the pig coronary arteries
Assay: Antagonism of substance P induced relaxation of the pig coronary arteries
Assay type: cell-based
Conditions: Sus scrofa, 0.5 h; test compound 1 × 10^-8; response to 10^-9 M substance P; 30 min incubation
Method: Antagonism of substance P induced relaxation of the pig coronary arteries
Segments of coronary arteries taken from pigs (killed by injection of an overdose of sodium pentobarbital) were inverted and mounted for recording of isometric tension in organ baths (volume 20 ml) with the endothelium at the outside. The preparations were bathed in Krebs - Henseleit solution. The solution was kept at 37° C. and gassed with a mixture of O2 /CO2 (95/5). After stabilisation of the preparations, prostaglandin F2α (10^-5 M) was administered to induce a contraction. This was repeated until contractile responses became stable. Then prostaglandin F2α was again administered and substance P (3×10^-10 M and 10^-9 M cumulatively) was added. […] After washing away the agonists, a known concentration of a compound of formula (I) was added. After an incubation period of 30 minutes, prostaglandin F2α (10^-5 M) and the same concentrations of substance P as described above were again administered in the presence of the compound to be tested.

Row | SMILES | inhibition at 0.01 µM
1 | Cc1cc(C)cc(C(=O)N2CC[C@@H](N3CCC(Nc4nc5ccccc5n4Cc4cccs4)CC3)C[C@@H]2Cc2ccccc2)c1 (relative stereo) [Compound 8] | 14.7%

Same assay, conditions: Sus scrofa, 0.5 h; test compound 3 × 10^-8; response to 10^-9 M substance P; 30 min incubation

Row | SMILES | inhibition at 0.03 µM
2 | CCOCCn1c(NC2CCN([C@@H]3CCN(C(=O)c4cc(C)cc(C)c4)[C@@H](Cc4ccccc4)C3)CC2)nc2ccccc21 (relative stereo) [Compound 2] | 41.1%
3 | Cc1cc(C)cc(C(=O)N2CC[C@@H](N3CCC(Nc4nc5ccccc5n4Cc4cscn4)CC3)C[C@@H]2Cc2ccccc2)c1 (relative stereo) [Compound 10] | 89.3%
4 | Cc1nc(C)c(Cn2c(NC3CCN([C@H]4CCN(C(=O)c5cc(C(F)(F)F)cc(C(F)(F)F)c5)[C@@H](Cc5ccccc5)C4)CC3)nc3cccnc32)o1 (relative stereo) [Compound 17] | 94.5%
5 | CCOCCn1c(NC2CCC(Cc3ccccc3)N(C(=O)c3cc(C(F)(F)F)cc(C(F)(F)F)c3)CC2)nc2ccccc21 (stereo not shown) [Compound 150] | 98.1%
6 | CCOCCn1c(NC2CCN([C@@H]3CCN(C(=O)c4cc(C(F)(F)F)cc(C(F)(F)F)c4)[C@@H](Cc4ccccc4)C3)CC2)nc2ccccc21 (relative stereo) [Compound 6, (±)-trans-1-[1,3-bis(trifluoromethyl)-benzoyl]-4-[4-[[1-(2-ethoxyethyl)-1H-benzimidazol-2-yl]amino]-1-piperidinyl]-2-(phenylmethyl)piperidine] | 85.3%
7 | Cc1ncc(Cn2c(NC3CCN([C@H]4CCN(C(=O)c5cc(C(F)(F)F)cc(C(F)(F)F)c5)[C@@H](Cc5ccccc5)C4)CC3)nc3ccccc32)o1 (relative stereo) [Compound 15] | 84.6%
8 | O=C(c1cc(C(F)(F)F)cc(C(F)(F)F)c1)N1CC[C@@H](N2CCC(Nc3nc4ccccc4n3Cc3ccc(F)cc3)CC2)C[C@@H]1Cc1ccccc1 (relative stereo) [Compound 27] | 92.8%
9 | Cc1ccc(Cn2c(C(O)C3CCN([C@H]4CCN(C(=O)c5cc(C(F)(F)F)cc(C(F)(F)F)c5)[C@@H](Cc5ccccc5)C4)CC3)nc3ccccc32)o1 (stereo partly shown) [Compound 21] | 95.8%
10 | Cc1ccc(Cn2c(NC3CCN([C@@H]4CCN(C(=O)c5cc(C(F)(F)F)cc(C(F)(F)F)c5)[C@@H](Cc5ccccc5)C4)CC3)nc3ccccc32)o1 (relative stereo) [Compound 29] | 65.6%
11 | Cc1ncc(Cn2c(NC3CCN([C@@H]4CCN(C(=O)c5cc(C(F)(F)F)cc(C(F)(F)F)c5)[C@@H](Cc5ccccc5)C4)CC3)nc3ccccc32)o1 (relative stereo) [Compound 16] | 88.8%
12 | O=C(c1cc(C(F)(F)F)cc(C(F)(F)F)c1)N1CC[C@H](N2CCC(Nc3nc4ccccc4n3Cc3ccc(F)cc3)CC2)C[C@@H]1Cc1ccccc1 (relative stereo) [Compound 26] | 82.2%
13 | CCOCCn1c(NC2CCN([C@H]3CCN(C(=O)c4cc(C)cc(C)c4)[C@@H](Cc4ccccc4)C3)CC2)nc2ccccc21 (relative stereo) [Compound 1] | 15%
14 | CCOCCn1c(NC2CCCN(C(=O)c3cc(C(F)(F)F)cc(C(F)(F)F)c3)C(Cc3ccccc3)C2)nc2ccccc21 (stereo not shown) [Compound 149] | 12.7%
15 | O=C(c1cc(C(F)(F)F)cc(C(F)(F)F)c1)N1CC[C@@H](N2CCC(Oc3nc4ccccc4n3Cc3ccc(F)cc3)CC2)C[C@@H]1Cc1ccccc1 (relative stereo) [Compound 25] | 100%
16 | CCOCCn1c(NC2CCN([C@H]3CCN(C(=O)c4cc(C(F)(F)F)cc(C(F)(F)F)c4)[C@@H](Cc4ccccc4)C3)CC2)nc2ccccc21 (relative stereo) [Compound 5] | 80.7%
17 | Cc1cc(C)cc(C(=O)N2CC[C@@H](N3CCC(Nc4nc5ccccc5n4Cc4ccccc4F)CC3)C[C@@H]2Cc2ccccc2)c1 (relative stereo) [Compound 4] | 10.2%
18 | O=C(c1cc(C(F)(F)F)cc(C(F)(F)F)c1)N1CC[C@@H](N2CCC(Sc3nc4ccccc4n3Cc3ccc(F)cc3)CC2)C[C@@H]1Cc1ccccc1 (relative stereo) [Compound 35] | 88.5%
19 | O=C(c1cc(C(F)(F)F)cc(C(F)(F)F)c1)N1CC[C@@H](N2CCC(Nc3nc4ccccc4n3Cc3ccc(CO)o3)CC2)C[C@H]1Cc1ccccc1 (relative stereo) [Compound 44] | 91.5%
20 | CCOCCn1c(N[C@@H]2CCN(C(=O)c3cc(C(F)(F)F)cc(C(F)(F)F)c3)[C@H](Cc3ccc(F)c(F)c3)C2)nc2ccccc21 (relative stereo) [Compound 148] | 100%
21 | CCOCCn1c(N[C@@H]2CCN(C(=O)c3cc(C(F)(F)F)cc(C(F)(F)F)c3)[C@@H](Cc3ccc(F)c(F)c3)C2)nc2ccccc21 (relative stereo) [Compound 147] | 95.6%
22 | O=C(c1cc(C(F)(F)F)cc(C(F)(F)F)c1)N1CC[C@@H](N2CCC(Nc3nc4ccccc4n3Cc3ccc(CO)o3)CC2)C[C@@H]1Cc1ccccc1 (relative stereo) [Compound 43] | 85.2%
23 | Cc1cc(C)cc(C(=O)N2CC[C@H](N3CCC(Nc4nc5ccccc5n4Cc4cscn4)CC3)C[C@@H]2Cc2ccccc2)c1 (relative stereo) [Compound 9] | 78.1%
24 | Cc1ccc(Cn2c(CC3CCN([C@@H]4CCN(C(=O)c5cc(C(F)(F)F)cc(C(F)(F)F)c5)[C@H](Cc5ccccc5)C4)CC3)nc3ccccc32)o1 (relative stereo) [Compound 42] | 96.9%

Same assay, conditions: Sus scrofa, 0.5 h; test compound 3 × 10^-9; response to 10^-9 M substance P; 30 min incubation

Row | SMILES | inhibition at 0.003 µM
25 | Cc1ncc(Cn2c(NC3CCN([C@@H]4CCN(C(=O)c5cccs5)[C@@H](Cc5ccccc5)C4)CC3)nc3ccccc32)o1 (relative stereo) [Compound 56] | 8.7%
26 | Cc1ccc(Cn2c(C(O)C3CCN(C4CCN(C(=O)c5cc(C(F)(F)F)cc(C(F)(F)F)c5)C(Cc5ccccc5)C4)CC3)nc3ccccc32)o1 (stereo not shown) [Compound 23] | 94.3%
27 | Cc1ncc(Cn2c(NC3CCN([C@@H]4CCN(C(=O)c5sc(C)nc5C)[C@H](Cc5ccccc5)C4)CC3)nc3ccccc32)o1 (relative stereo) [Compound 65] | 9.7%
28 | CCOCCn1c(N[C@@H]2CCN(C(=O)c3cc(C(F)(F)F)ccc3C(F)(F)F)[C@@H](Cc3ccc(Cl)cc3)C2)nc2ccccc21 (relative stereo) [Compound 144] | 88.4%
29 | Cc1ncc(Cn2c(OC3CCN([C@@H]4CCN(C(=O)c5cc(C(F)(F)F)cc(C(F)(F)F)c5)[C@H](Cc5ccccc5)C4)CC3)nc3ccccc32)o1 (relative stereo) [Compound 36] | 66%
30 | Cc1ncc(Cn2c(NC3CCN([C@@H]4CCN(C(=O)c5cc(Cl)cc(Cl)c5)[C@@H](Cc5ccccc5)C4)CC3)nc3ccccc32)o1 (relative stereo) [Compound 55] | 28.1%
31 | Cc1ccc(Cn2c(NC3CCN([C@H]4CCN(C(=O)c5cc(C(F)(F)F)cc(C(F)(F)F)c5)[C@@H](Cc5ccccc5)C4)CC3)nc3cccnc32)o1 (relative stereo) [Compound 19] | 79.5%
32 | Cc1cc(C)cc(C(=O)N2CC[C@@H](N3CCC(Nc4nc5ccccc5n4Cc4ccc(C)o4)CC3)C[C@@H]2Cc2ccccc2)c1 (relative stereo) [Compound 32] | 20.1%
33 | Cc1ccc(Cn2c(CC3CCN([C@@H]4CCN(C(=O)c5cc(C(F)(F)F)cc(C(F)(F)F)c5)[C@@H](Cc5ccccc5)C4)CC3)nc3ccccc32)o1 (relative stereo) [Compound 41] | 82.6%
34 | Cc1ncc(Cn2c(N[C@@H]3CCN(C(=O)c4ccc5ccccc5c4)[C@@H](Cc4ccccc4)C3)nc3ccccc32)o1 (relative stereo) [Compound 45] | 13.1%
35 | CCOCCn1c(N[C@@H]2CCN(C(=O)c3cc(C(F)(F)F)cc(C(F)(F)F)c3)[C@H](Cc3ccc(C(F)(F)F)cc3)C2)nc2ccccc21 (relative stereo) [Compound 146] | 51.8%
36 | Cc1ncc(Cn2c(NC3CCN([C@@H]4CCN(C(=O)Nc5cc(C(F)(F)F)cc(C(F)(F)F)c5)[C@@H](Cc5ccccc5)C4)CC3)nc3ccccc32)o1 (racemic) [Compound 52, (±)-trans-N-[3,5-bis(trifluoromethyl)phenyl]-4-[4-[[1-[(2-methyl-5-oxazolyl)methyl]-1H-benzimidazol-2-yl]amino]-1-piperidinyl]-2-(phenylmethyl)-1-piperidinecarboxamide] | 6.3%
37 | Cc1nc(C)c(Cn2c(NC3CCN([C@@H]4CCN(C(=O)c5cc(C(F)(F)F)cc(C(F)(F)F)c5)[C@@H](Cc5ccccc5)C4)CC3)nc3cccnc32)o1 (relative stereo) [Compound 18] | 73.7%
38 | Cc1ccc(Cn2c(NC3CCN([C@@H]4CCN(C(=O)c5cc(C(F)(F)F)cc(C(F)(F)F)c5)[C@@H](Cc5ccccc5)C4)C3)nc3cccnc32)o1 (stereo partly shown) [Compound 31] | 90.6%
39 | Cc1ncc(Cn2c(OC3CCN([C@@H]4CCN(C(=O)c5cc(C(F)(F)F)cc(C(F)(F)F)c5)[C@@H](Cc5ccccc5)C4)CC3)nc3ccccc32)o1 (relative stereo) [Compound 37] | 70.5%

Same assay, conditions: test compound 3 × 10^-8; response to 10^-9 M substance P; 30 min incubation

Row | SMILES | % inhibition
40 | CCOCCn1c(NC2CCN(C3CCN(C(=O)c4cc(C(F)(F)F)cc(C(F)(F)F)c4)C(Cc4ccccc4)C3)C(Cc3ccccc3)C2)nc2ccccc21 (stereo not drawn) [Compound 13, 2α,4α-trans-1-[3,5-bis(trifluoromethyl)benzoyl]-4-[4-[[1-(2-ethoxyethyl)-1H-benzimidazol-2-yl]amino]-2-(phenylmethyl)-1-piperidinyl]-2-(phenylmethyl)piperidine] | 19.9%
